ChEMBL document CHEMBL1125620, “Synthesis and biological evaluation of a series of substituted N-alkoxyimides and -amides as potential atypical antipsychotic agents” (J Med Chem, 1991)

Assays:
Mus musculus = assay: Inhibition of apomorphine induced mouse climbing, administered intraperitoneally; type: functional; conditions: ip
[1] = molecular target: Serotonin 2 (5-HT2) receptor (Rattus norvegicus, UniProt P30994+P08909+P14842); assay: Compound was measured for affinity at 5-hydroxytryptamine 2 receptor in rat cortical by [3H]spiroperidol displacement.
[2] = molecular target: T1, 5-hydroxytryptamine receptor 1A (Rattus norvegicus, UniProt P19327); assay: Affinity for 5-hydroxytryptamine 1A receptor labeled with [3H]8-OH-DPAT radioligand in hippocampus tissue; type: tissue-based
T1 sequence (P19327 whole entry): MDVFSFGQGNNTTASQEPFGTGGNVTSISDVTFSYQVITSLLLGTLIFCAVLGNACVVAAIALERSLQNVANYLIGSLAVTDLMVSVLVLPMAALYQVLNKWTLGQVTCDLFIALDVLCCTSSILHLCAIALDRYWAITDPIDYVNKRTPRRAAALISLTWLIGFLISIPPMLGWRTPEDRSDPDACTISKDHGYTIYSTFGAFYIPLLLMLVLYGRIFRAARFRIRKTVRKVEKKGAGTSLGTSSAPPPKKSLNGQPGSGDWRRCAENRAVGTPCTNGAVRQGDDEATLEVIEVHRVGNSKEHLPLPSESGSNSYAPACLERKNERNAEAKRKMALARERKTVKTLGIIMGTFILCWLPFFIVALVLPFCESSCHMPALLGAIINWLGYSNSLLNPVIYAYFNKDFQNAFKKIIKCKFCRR

Rattus norvegicus [3] = assay: In vivo inhibition of apomorphine induced stereotypy in rat by the compound administered intraperitoneally; type: functional; conditions: ip
Rattus norvegicus [4] = assay: In vivo activity administered intraperitoneally was determined by pole climb escape failures in rat; type: functional; conditions: ip
Rattus norvegicus [5] = assay: In vivo activity administered intraperitoneally was determined by induction of catalepsy in rat; type: functional; conditions: ip
Rattus norvegicus [6] = assay: In vivo activity administered intraperitoneally was determined by pole climb avoidance in rat; type: functional; conditions: ip
Rattus norvegicus [7] = assay: In vivo activity was measured by the intracranial self stimulation in rat; type: functional
Rattus norvegicus [8] = assay: In vivo inhibition of amphetamine induced stereotypy in rat by the compound administered intraperitoneally; type: functional; conditions: ip
Rattus norvegicus [9] = assay: Activity administered intraperitoneally was determined by social interaction of rat at […]; type: functional
Rattus norvegicus [10] = assay: In vivo activity administered intraperitoneally was determined by intracranial self stimulation in rat; type: functional; conditions: ip
D(2) dopamine receptor = D(2) dopamine receptor (Rattus norvegicus, UniProt P61169); assay: Compound was measured for affinity at Dopamine receptor D2 labeled with [3H]spiroperidol radioligand in striatum tissue; type: tissue-based
D(2) dopamine receptor, sequence (P61169 whole entry): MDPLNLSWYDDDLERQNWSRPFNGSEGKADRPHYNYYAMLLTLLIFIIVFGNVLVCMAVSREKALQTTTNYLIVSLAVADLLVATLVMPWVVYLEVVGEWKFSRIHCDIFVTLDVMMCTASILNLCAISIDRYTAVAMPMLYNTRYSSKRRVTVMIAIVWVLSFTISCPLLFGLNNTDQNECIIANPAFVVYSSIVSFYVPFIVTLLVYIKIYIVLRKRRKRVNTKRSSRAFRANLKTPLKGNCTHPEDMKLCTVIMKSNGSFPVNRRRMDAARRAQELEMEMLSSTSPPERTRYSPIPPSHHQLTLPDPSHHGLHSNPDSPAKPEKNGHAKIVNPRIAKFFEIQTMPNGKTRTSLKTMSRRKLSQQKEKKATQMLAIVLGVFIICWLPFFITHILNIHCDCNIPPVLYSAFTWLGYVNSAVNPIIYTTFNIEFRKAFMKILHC

Rattus norvegicus [11] = assay: In vivo activity administered intraperitoneally was determined by social interaction of rat at […]; type: functional
Rattus norvegicus [12] = assay: In vivo activity administered intraperitoneally was determined by induction of catalepsy in rat at […]; type: functional
Rattus norvegicus [13] = assay: In vivo activity was measured by the pole climb avoidance in rat; type: functional
Rattus norvegicus [14] = assay: In vivo activity administered intraperitoneally was determined by induction of catalepsy in rat at 40 mg/kg
Rattus norvegicus [15] = assay: In vivo activity administered intraperitoneally was determined by social interaction in rat at 1.0 mg/kg
[16] = molecular target: 5-hydroxytryptamine receptor 1B (Rattus norvegicus, UniProt P28564); assay: compound was measured for affinity against 5-hydroxytryptamine 1B receptor labelled with [3H]5-HT radioligand in striatum tissue; type: tissue-based
5-hydroxytryptamine receptor 1B, sequence (P28564 whole entry): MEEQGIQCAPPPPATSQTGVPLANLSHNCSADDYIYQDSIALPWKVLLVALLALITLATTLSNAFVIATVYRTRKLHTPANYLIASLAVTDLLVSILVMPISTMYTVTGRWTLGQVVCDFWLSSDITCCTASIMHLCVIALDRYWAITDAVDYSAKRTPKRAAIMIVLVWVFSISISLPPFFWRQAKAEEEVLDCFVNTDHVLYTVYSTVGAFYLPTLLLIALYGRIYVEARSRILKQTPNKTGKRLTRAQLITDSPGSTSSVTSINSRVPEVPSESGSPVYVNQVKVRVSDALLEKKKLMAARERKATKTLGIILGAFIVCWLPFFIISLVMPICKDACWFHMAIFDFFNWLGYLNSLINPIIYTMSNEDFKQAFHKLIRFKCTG

Rattus norvegicus [17] = assay: In vivo activity administered intraperitoneally was determined by induction of catalepsy in rat at 30 mg/kg
[18] = molecular target: Sigma non-opioid intracellular receptor 1 (Rattus norvegicus, UniProt Q9R0C9); assay: compound was measured as affinity for sigma receptor labeled with [3H]-SKF- […] radioligand in slide-mounted slices
Sigma non-opioid intracellular receptor 1, sequence (Q9R0C9 whole entry): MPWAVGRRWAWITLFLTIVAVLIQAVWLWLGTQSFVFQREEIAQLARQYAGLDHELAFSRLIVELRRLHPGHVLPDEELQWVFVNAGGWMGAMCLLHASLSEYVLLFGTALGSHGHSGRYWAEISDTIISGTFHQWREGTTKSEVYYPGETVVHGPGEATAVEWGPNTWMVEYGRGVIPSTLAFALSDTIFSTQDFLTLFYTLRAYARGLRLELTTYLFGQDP

D(1A) dopamine receptor = D(1A) dopamine receptor (Rattus norvegicus, UniProt P18901); assay: compound was measured as affinity for dopamine receptor D1 labeled with [3H]-SCH- 23390 radioligand in striatum tissue; type: tissue-based
D(1A) dopamine receptor, sequence (P18901 whole entry): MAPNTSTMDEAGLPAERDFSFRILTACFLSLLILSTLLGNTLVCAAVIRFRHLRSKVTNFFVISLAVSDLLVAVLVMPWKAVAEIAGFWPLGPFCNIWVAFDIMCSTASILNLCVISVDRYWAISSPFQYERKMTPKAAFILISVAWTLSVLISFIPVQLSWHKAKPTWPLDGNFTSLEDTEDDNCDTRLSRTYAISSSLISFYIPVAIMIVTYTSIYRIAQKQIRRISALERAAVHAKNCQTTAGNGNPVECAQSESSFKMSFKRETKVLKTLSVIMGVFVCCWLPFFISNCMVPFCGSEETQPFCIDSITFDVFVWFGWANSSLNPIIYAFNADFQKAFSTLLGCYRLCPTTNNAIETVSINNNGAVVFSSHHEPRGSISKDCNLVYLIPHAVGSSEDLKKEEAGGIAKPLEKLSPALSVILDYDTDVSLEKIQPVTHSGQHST

Rattus norvegicus [19] = assay: In vivo inhibition of amphetamine induced stereotypy in rat by the compound administered intraperitoneally at […]; type: functional
Rattus norvegicus [20] = assay: In vivo activity administered orally was determined by intracranial self stimulation in rat; type: functional; conditions: po
[21] = molecular target: T2, Alpha adrenergic receptor 1A and 1B (Rattus norvegicus, UniProt P15823+P43140); assay: compound was measured as affinity for Alpha-1 adrenergic receptor labeled with [3H]WB-4101 radioligand in whole brain tissue
T2 sequence (P15823 whole entry): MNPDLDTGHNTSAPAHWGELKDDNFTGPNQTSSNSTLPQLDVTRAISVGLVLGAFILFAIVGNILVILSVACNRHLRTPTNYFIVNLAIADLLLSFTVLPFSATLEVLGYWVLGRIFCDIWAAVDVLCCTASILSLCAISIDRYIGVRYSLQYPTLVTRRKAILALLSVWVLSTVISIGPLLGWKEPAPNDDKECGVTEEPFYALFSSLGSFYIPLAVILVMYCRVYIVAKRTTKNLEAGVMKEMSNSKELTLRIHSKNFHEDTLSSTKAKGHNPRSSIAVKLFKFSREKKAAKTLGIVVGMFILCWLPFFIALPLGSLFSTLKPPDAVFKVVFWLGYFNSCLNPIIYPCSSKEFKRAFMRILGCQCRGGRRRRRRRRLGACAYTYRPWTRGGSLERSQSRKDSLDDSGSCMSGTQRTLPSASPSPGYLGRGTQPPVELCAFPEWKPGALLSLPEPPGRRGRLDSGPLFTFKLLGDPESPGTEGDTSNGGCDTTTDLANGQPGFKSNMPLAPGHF
T2 sequence (P43140 whole entry): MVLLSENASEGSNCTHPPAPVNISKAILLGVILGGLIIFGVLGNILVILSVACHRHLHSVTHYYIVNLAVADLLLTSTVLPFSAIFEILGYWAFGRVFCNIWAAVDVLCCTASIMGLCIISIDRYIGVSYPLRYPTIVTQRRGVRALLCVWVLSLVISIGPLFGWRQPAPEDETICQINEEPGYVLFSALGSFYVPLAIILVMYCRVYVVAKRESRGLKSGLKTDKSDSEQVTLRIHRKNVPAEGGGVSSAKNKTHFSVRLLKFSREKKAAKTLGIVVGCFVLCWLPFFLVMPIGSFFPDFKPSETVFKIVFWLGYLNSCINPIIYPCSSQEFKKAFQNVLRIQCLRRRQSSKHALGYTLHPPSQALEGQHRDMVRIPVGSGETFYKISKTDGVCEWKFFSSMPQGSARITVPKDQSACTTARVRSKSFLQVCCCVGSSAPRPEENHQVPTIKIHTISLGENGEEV

Structure (SMILES)	ED50 (Mus musculus) [mg/kg]	IC50 [1] [nM]	IC50 [2] [nM]	other results
Cc1cccc(N2CCN(CCCON3C(=O)CC4(CCCC4)CC3=O)CC2)c1C	39.7	250	170	–
O=C1CC2(CCCC2)CC(O)N1OCCCN1CCN(c2nsc3ccccc23)CC1 (stereo unspecified)	> 20	10	80	–
O=C(CCCN1CCC(O)(c2ccc(Cl)cc2)CC1)c1ccc(F)cc1 [HALOPERIDOL]	0.25	–	–	ED50 (Rattus norvegicus [3]): 0.31 mg/kg; ED50 (Rattus norvegicus [4]): 7.3 mg/kg; ED50 (Rattus norvegicus [5]): 0.659 mg/kg; ED50 (Rattus norvegicus [6]): 0.53 mg/kg; ED50 (Rattus norvegicus [7]): 0.077 mg/kg; ED50 (Rattus norvegicus [8]): 0.215 mg/kg
COc1ccccc1N1CCN(CCON2C(=O)CC3(CCCC3)CC2=O)CC1	> 20	3200	370	–
Cc1nc2n(c(=O)c1CCN1CCC(c3noc4cc(F)ccc34)CC1)CCCC2 [RISPERIDONE]	0.06	–	–	Inhibition (Rattus norvegicus [9]): 27%; ED50 (Rattus norvegicus [3]): 3.2 mg/kg; ED50 (Rattus norvegicus [4]): 1.3 mg/kg; ED50 (Rattus norvegicus [10]): 0.13 mg/kg; ED50 (Rattus norvegicus [5]): 5.7 mg/kg; ED50 (Rattus norvegicus [6]): 0.48 mg/kg
O=C1CC2(CCCC2)CC(=O)N1OCCN1CCN(c2ncccn2)CC1	> 20	–	–	–
O=C1c2ccccc2C(=O)N1OCCCN1CCN(c2cccc(C(F)(F)F)c2)CC1	> 20	–	–	IC50 (D(2) dopamine receptor): > 20000 nM
O=C1CC2(CCCC2)CC(=O)N1OCCCN1CCN(c2ncccn2)CC1	> 20	–	380	–
O=C1CC2(CCCC2)CC(=O)N1CCCCN1CCN(c2nsc3ccccc23)CC1 [TIOSPIRONE]	0.84	–	–	ED50 (Rattus norvegicus [3]): 3.7 mg/kg; ED50 (Rattus norvegicus [4]): 2.77 mg/kg; ED50 (Rattus norvegicus [10]): 0.124 mg/kg; ED50 (Rattus norvegicus [6]): 0.93 mg/kg; Inhibition (Rattus norvegicus [11]): 34%; Inhibition (Rattus norvegicus [12]): 67%
O=C1CC2(CCCC2)CC(=O)N1OCCCN1CCN(c2nc3ccccc3s2)CC1	> 20	8100	2200	–
O=C1CC2(CCCC2)CC(=O)N1OCCCN1CCN(c2ccc3ccccc3n2)CC1	> 20	–	–	–
O=C1c2ccccc2C(=O)N1OCCCN1CCN(c2cccc(Cl)c2)CC1	> 20	–	–	–
COc1ccccc1N1CCN(CCCON2C(=O)CC3(CCCC3)CC2O)CC1 (stereo unspecified)	> 20	–	60	–
O=C1CC2(CCCC2)CC(=O)N1OCCN1CCN(c2nsc3ccccc23)CC1	> 20	240	970	–
O=C1c2ccccc2C(=O)N1OCCCN1CCN(c2nsc3ccccc23)CC1	> 20	–	> 20000	–
COc1ccccc1N1CCN(CCCON2C(=O)CC3(CCCC3)CC2=O)CC1	11	1190	110	–

Structure (SMILES)	ED50 (Mus musculus) [mg/kg]	IC50 [1] [nM]	IC50 [2] [nM]	other results
CSc1cccc(N2CCN(CCCON3C(=O)CC4(CCCC4)CC3=O)CC2)c1	> 20	–	50	–
Cc1cccc(N2CCN(CCCON3C(=O)c4ccccc4C3=O)CC2)c1	> 20	–	–	–
Cc1cccc(N2CCN(CCCON3C(=O)CC4(CCCC4)CC3=O)CC2)c1	26.5	390	90	–
O=C1CC2(CCCC2)CC(=O)N1OCCCN1CCN(c2nsc3ccccc23)CC1	5.7	20	110	ED50 (Rattus norvegicus [3]): 35.4 mg/kg; ED50 (Rattus norvegicus [13]): 2.5 mg/kg; Catalepsy (Rattus norvegicus [14]): 83%; ED50 (Rattus norvegicus [4]): > 20 mg/kg; Increase (Rattus norvegicus [15]): 24%; IC50 [16]: 5530 nM; Catalepsy (Rattus norvegicus [17]): 33%; IC50 [18]: 1100 nM; IC50 (D(1A) dopamine receptor): 6600 nM; Inhibition (Rattus norvegicus [19]): 17%; ED50 (Rattus norvegicus [20]): 12.5 mg/kg; IC50 [21]: 10 nM
O=C1c2ccccc2C(=O)N1OCCCN1CCN(c2ccc3ccccc3n2)CC1	> 20	–	–	–
O=C1CC2(CCCC2)CC(=O)N1OCCCN1CCN(C2=NS(=O)(=O)c3ccccc32)CC1	> 20	> 20000	> 20000	–
COc1ccccc1N1CCN(CCCON2C(=O)c3ccccc3C2=O)CC1	> 20	–	6900	IC50 (D(2) dopamine receptor): > 20000 nM
O=C1CC2(CCCC2)CC(=O)N1OCCCN1CCN(c2cccc(C(F)(F)F)c2)CC1	> 20	–	30	–
O=C1CC2(CCCC2)CC(=O)N1OCCCN1CCN(c2cccc(Cl)c2)CC1	> 20	–	40	–
CN1CCN(C2=Nc3cc(Cl)ccc3Nc3ccccc32)CC1 [CLOZAPINE]	8.1	–	–	ED50 (Rattus norvegicus [4]): > 80 mg/kg; ED50 (Rattus norvegicus [10]): 9.1 mg/kg; ED50 (Rattus norvegicus [6]): 13.1 mg/kg
O=C1CC2(CCCC2)CC(=O)N1OCCCN1CCN(c2ccccc2Cl)CC1	> 20	–	220	–
O=C1CC2(CCCC2)CCN1OCCCN1CCN(c2nsc3ccccc23)CC1	17.8	10	30	–
Cc1ccccc1N1CCN(CCCON2C(=O)c3ccccc3C2=O)CC1	> 20	–	–	–
COc1ccccc1N1CCN(CCCON2CCC3(CCCC3)CC2=O)CC1	> 20	2700	70	–
CSc1cccc(N2CCN(CCCON3C(=O)c4ccccc4C3=O)CC2)c1	> 20	–	–	–
